In patent US20220217975A1, “GREEN FORMULATION TO REDUCE VOLATILITY AND LEACHING OF PESTICIDES” (POLITECNICO DI TORINO, priority 2019, published 2022):
≈ marks a conversion by molar mass, not a printed value. Like-named read-outs stand apart in the source and are kept apart here.

How the values were obtained:
[1] = literature; cited from earlier work
[2] = cited from earlier work
[3] = dicamba active ingredient; cited from earlier work
[4] = Volatility test of the active ingredient; format: physicochemical; conditions: 200 mL deionized water, 92 mg active ingredient, stirred open at 300 rpm, over 4 days, FIG. 6
Method: The procedure involved the use of three solutions: • Solution A: formulation of the following patent suspended in 200 mL of deionized water; • Solution B: pure dicamba active ingredient, dissolved in 200 mL of deionized water; • Solution C: 200 mL of deionized water.
All the previous solutions were stirred without lids, caps or parafilm that would hinder the evaporation. The characterization took place by sampling the solutions every 24 hours and analysing them with a spectrophotometer. The withdrawn amount was replenished with deionized water.
Some specifications: • the clay suspended in solution A has an active ingredient content by weight of approximately 92 mg; • in order to make a comparison, and therefore to evaluate whether the formulation actually makes the dicamba less volatile, the amount by weight of the active ingredient inserted in solution B is identical to that adsorbed on the clay, that is 92 mg; • the weighing of the solutions, to evaluate the amount of evaporated substance, also includes the contribution of water. […]

COc1c(Cl)ccc(Cl)c1C(=O)O [dicamba, 3,6-dichloro-2-methoxybenzoic acid]
half-life time, most frequently reported values [1]: lower than 20 days | solubility in water ([2]; pH approximately 2 (no pH adjustment)): ~8 mg/mL (≈ 36.2 mM) | solubility in water ([2]; pH values higher than 4.1): > 250 mg/mL | vapour pressure [3]: 2.6·10^−8 atm | herbicide loss by volatilization (in words) [4]: initial rapid volatilization and to a subsequent slow and progressive loss in mass
